{
  "source": "ChEMBL document CHEMBL3393044",
  "about": "“Amphirionin-2, a novel linear polyketide with potent cytotoxic activity from a marine dinoflagellate Amphidinium species” (Bioorg Med Chem Lett, 2015)",
  "key": {"A549": {"tested_on": "A549", "test": "Cytotoxicity against human A549 cells after 72 hrs by WST-8 assay", "type": "functional, cell-based", "conditions": "A549, 72 h"}, "[1]": {"test": "Cytotoxicity against human Caco2 cells after 72 hrs by WST-8 assay", "type": "functional, cell-based", "conditions": "Caco-2, 72 h"}, "HeLa": {"tested_on": "HeLa", "test": "Cytotoxicity against human HeLa cells assessed as growth inhibition at 1 ug/ml after 72 hrs by WST-8 assay", "type": "functional", "conditions": "read-out: GI"}, "P388": {"tested_on": "P388", "test": "Antitumor activity against mouse P388 cells xenografted in CDF1 mouse at 0.5 mg/kg administered on day 1 and day 5 relative to control", "type": "functional"}, "Homo sapiens": {"species_on_record": "Homo sapiens", "test": "Binding affinity to actin (unknown origin) by surface plasmon resonance analysis"}},
  "note": "Calls of active or inactive are those of the source. The calls are words filed in the database; no cut-off is given here.",
  "data": [
    {"smiles": "C=CC[C@H](C)[C@@H](O)C[C@@H]1C[C@H]2O[C@H](/C=C(C)/C=C/C[C@H]3C[C@@H]4O[C@@H](/C=C/CCCCC)C[C@@H]4O3)C[C@H]2O1", "values": [
      {"measurement": "IC50", "setting": "A549", "value": 0.6, "unit": "µg/mL"},
      {"measurement": "IC50", "setting": "[1]", "value": 0.1, "unit": "µg/mL"},
      {"measurement": "inhibition of growth at 1 µg/mL", "setting": "HeLa", "value": 20, "unit": "%"},
      {"measurement": "T/C", "setting": "P388", "value": 120, "unit": "%"},
      {"measurement": "Activity", "setting": "Homo sapiens", "value": "Active"}
    ]}
  ]
}
